Here are results for 2 molecules from patent US20140057915A1, “KINASE INHIBITORS” (TOPIVERT PHARMA LIMITED, priority 2012, published 2014).

Usually IC50 stands for the concentration at which inhibition is half-maximal. The inhibition is the drop in the measured response relative to a control, in per cent.

Data set [1] has as its system ICAM-1 expression, BEAS2B cells. As to the kind of experiment: Poly I:C-induced ICAM-1 expression in BEAS2B cells. In kind it is cell-based. As to conditions: Homo sapiens, BEAS-2B; read-out: Poly IC induced ICAM1 in BEAS2B, IC50. Summed up: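 BEAS2B human bronchial epithelial cells pre-incubated 2 h with compound, then transfected with poly I:C (1 μg/mL) plus Oligofectamine. After 18 h, cell-surface ICAM-1 read by cell-based ELISA (A450–655), normalised to Crystal Violet cell number (A595); inhibition calculated against vehicle control at each concentration.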

In data set [2] the test system is d-U937 cells. As to the kind of experiment: Cell viability: MTT assay. It is filed as cell-based, human. As to conditions: 1 μg/mL. The method, boiled down: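 Differentiated U937 cells exposed to compound at 1 or 10 μg/mL, either 4 h in 5% FCS or 24 h in 10% FCS RPMI1640. MTT then added for 1 h, formazan dissolved in DMSO and read at 550 nm. Viability loss given as % versus 0.5% DMSO vehicle; apparent gains appear negative.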
(In general: Tetrazolium assays rely on reduction of a dye to a coloured formazan, in cell work by metabolically active cells.)

For data set [3], the target named is GSK3α (Homo sapiens, UniProt P49840). As to the kind of experiment: Enzyme binding assay (Kinomescan). As to conditions: read-out: % Inhibition of kinase binding at 500 nM, GSK3α. On the procedure: (§1) These assays were conducted by DiscoverX (formerly Ambit; San Diego, Calif.). The percentage inhibition produced by incubation with a test compound is calculated relative to the non-inhibited control.
Chain of GSK3α (P49840 whole entry): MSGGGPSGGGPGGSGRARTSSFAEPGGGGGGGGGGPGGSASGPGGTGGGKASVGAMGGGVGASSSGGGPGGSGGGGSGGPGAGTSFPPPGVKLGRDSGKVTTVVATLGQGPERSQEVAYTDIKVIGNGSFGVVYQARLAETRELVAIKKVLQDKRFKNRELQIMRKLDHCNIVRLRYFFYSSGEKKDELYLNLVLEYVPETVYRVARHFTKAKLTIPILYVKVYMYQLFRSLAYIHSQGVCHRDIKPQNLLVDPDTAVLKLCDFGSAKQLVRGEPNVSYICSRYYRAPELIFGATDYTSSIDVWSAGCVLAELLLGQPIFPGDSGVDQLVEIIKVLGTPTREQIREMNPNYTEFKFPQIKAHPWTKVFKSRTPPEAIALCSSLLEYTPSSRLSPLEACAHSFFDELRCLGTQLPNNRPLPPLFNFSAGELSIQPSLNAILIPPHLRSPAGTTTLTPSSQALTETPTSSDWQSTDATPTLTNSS

For data set [4], the target named is B-Raf (Homo sapiens, UniProt P15056). As to the kind of experiment: Enzyme binding assay (Kinomescan). As to conditions: read-out: % Inhibition of kinase binding at 500 nM, B-Raf. On the procedure: (§2) Enzyme Binding Assays (Kinomescan)
Chain of B-Raf (P15056 whole entry): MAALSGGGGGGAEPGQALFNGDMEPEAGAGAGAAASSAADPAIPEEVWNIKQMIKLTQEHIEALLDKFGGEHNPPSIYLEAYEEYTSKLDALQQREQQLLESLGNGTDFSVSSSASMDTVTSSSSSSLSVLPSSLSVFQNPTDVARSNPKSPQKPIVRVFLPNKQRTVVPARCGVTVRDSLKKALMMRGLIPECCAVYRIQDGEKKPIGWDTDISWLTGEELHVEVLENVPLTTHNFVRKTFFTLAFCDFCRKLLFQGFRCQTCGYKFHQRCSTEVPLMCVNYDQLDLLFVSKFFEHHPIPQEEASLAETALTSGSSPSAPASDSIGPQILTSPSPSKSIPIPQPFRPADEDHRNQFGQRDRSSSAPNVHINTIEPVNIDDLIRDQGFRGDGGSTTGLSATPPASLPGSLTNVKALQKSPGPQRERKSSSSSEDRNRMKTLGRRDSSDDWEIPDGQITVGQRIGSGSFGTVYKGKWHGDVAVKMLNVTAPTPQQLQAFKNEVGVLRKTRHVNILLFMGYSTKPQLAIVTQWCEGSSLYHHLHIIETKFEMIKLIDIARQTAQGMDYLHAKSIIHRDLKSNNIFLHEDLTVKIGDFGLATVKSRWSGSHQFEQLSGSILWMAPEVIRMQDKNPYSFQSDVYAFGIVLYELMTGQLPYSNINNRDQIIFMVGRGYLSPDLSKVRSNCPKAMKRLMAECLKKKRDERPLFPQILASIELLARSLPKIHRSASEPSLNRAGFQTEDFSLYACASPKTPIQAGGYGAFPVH
(§3) The kinase enzyme binding activities of compounds disclosed herein were determined using a proprietary assay which measures active site-directed competition binding to an immobilized ligand (Fabian, M. A. et al., Nature Biotechnol., 2005, 23:329-336). These assays were conducted by DiscoverX (formerly Ambit; San Diego, Calif.). The percentage inhibition produced by incubation with a test compound is calculated relative to the non-inhibited control.

Data set [5] addresses p38 MAPKα (Homo sapiens, UniProt Q16539). As to the kind of experiment: Enzyme binding assay (Kinomescan). As to conditions: read-out: % Inhibition of kinase binding at 500 nM, p38 MAPKα. As for the experimental part: as §2, §3
In data set [6] the test system is TNFα release, d-U937 cells. As to the kind of experiment: LPS-induced TNFα release in d-U937 cells. It is filed as cell-based. As to conditions: Homo sapiens, dU937; relative to 10 μg/mL BIRB796; Table 4c1; read-out: LPS Induced Release of Cytokine in d-U937 Cells, TNFα REC50. The method, boiled down: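 U937 cells differentiated with PMA (100 ng/mL, 48–72 hr), pre-treated with compound for 2 hr, then stimulated with E. coli LPS (0.1 μg/mL) for 4 hr. Supernatant cytokine measured by sandwich ELISA; inhibition versus vehicle control, REC50 from concentration-response curve.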

Data set [7] deals with Syk (Homo sapiens, UniProt P43405). As to the kind of experiment: Enzyme binding assay (Kinomescan). As to conditions: read-out: % Inhibition of kinase binding at 500 nM, Syk. On the procedure:
as §2, §1

Data set [8] relates to mice. As to the kind of experiment: Mouse cigarette (tobacco) smoke model. As to conditions: 1.75 μg/mouse (35 μL, bid, i.n.). It is filed as in vivo. From the text:
The result of treatment with compound Example (8) on macrophage and neutrophil accumulation in BALF in the mouse cigarette smoke model was investigated (Table 5).

Chain of p38 MAPKα (Q16539 whole entry): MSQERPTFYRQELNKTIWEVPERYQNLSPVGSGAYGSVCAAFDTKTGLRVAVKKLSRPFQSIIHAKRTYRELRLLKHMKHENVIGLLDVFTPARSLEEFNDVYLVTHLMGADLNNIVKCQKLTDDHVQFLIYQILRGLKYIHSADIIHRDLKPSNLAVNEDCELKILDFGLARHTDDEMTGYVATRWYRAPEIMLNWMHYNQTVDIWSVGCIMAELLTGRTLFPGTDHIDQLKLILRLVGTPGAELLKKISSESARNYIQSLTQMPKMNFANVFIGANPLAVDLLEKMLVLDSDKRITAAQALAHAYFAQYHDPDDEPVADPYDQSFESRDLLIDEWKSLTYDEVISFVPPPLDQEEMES

Turning to `COCC(=O)Nc1cc(Oc2ccc(NC(=O)Nc3cc(C(C)(C)C)nn3-c3ccc(C)cc3)c3ccccc23)ccn1` [Reference Compound, N-(4-(4-(3-(3-tert-butyl-1-p-tolyl-1H-pyrazol-5-yl)ureido)naphthalen-1-yloxy)pyridin-2-yl)-2-methoxyacetamide, reference compound], the IC50 in data set [1] was 2.1 nM. The “Cell viability at time point in d-U937 cells, 4 h” value in data set [2] (4 h) was “−ve (−ve and +ve indicate that the value is below and above respectively, the no significant effect threshold, defined as 30% inhibition at 1 μg/mL at the time point indicated)”. For the same molecule, the “Cell viability at time point in d-U937 cells, 24 h” value in data set [2] (24 h) is “+ve (−ve and +ve indicate that the value is below and above respectively, the no significant effect threshold, defined as 30% inhibition at 1 μg/mL at the time point indicated)”. Besides, the inhibition at 0.5 µM in data set [3] worked out at 84%; in data set [4], 70%; in data set [5], 100%; in data set [7], 95%. In data set [6], the EC50 amounted to 0.13 nM.

Consider `CCC(=O)O[C@]1(C(=O)SCF)[C@H](C)C[C@H]2[C@@H]3C[C@H](F)C4=CC(=O)C=C[C@]4(C)[C@@]3(F)[C@@H](O)C[C@@]21C` [fluticasone propionate], for which the “neutrophil or macrophage accumulation into airways” value in data set [8] is on record as “did not inhibit”.
